Reference: EP4603099A1 (priority 2022, dated 2024)
Entries after “also recorded” stand apart in the source; their conditions may differ.

How the values were obtained:
[1] = tested on: IAV (H1N1, seasonal isolated strain in 2019); assay type: cell-based, influenza A virus; conditions: human lung explant, 10 µM TFMT; compared with untreated sample
IBV = experiment: qRT-PCR analysis of IBV RNA in infected A549 cells; assay type: cell-based, influenza B virus
Protocol: (§1) The cells were recovered with TRIzol (Invitrogen, 15596), and RNA was extracted according to the manufacturer's protocol. The cDNA was purified using a High-Capacity cDNA Reverse Transcription Kit (Applied Biosystems, 43688). Quantitative reverse transcription polymerase chain reaction (qRT-PCR) was carried out using a Fast SYBR Green Master Mix (Applied Biosystems, 4385614) or a TaqMan Fast Advanced Master Mix (Applied Biosystems, 4444558).

human Mtr1 [2] = target: T1, human Mtr1 (Homo sapiens, UniProt Q8N1G2); experiment: thermal shift assay using SYPRO Orange; conditions: ribavirin as control
T1 sequence (Q8N1G2 1-835): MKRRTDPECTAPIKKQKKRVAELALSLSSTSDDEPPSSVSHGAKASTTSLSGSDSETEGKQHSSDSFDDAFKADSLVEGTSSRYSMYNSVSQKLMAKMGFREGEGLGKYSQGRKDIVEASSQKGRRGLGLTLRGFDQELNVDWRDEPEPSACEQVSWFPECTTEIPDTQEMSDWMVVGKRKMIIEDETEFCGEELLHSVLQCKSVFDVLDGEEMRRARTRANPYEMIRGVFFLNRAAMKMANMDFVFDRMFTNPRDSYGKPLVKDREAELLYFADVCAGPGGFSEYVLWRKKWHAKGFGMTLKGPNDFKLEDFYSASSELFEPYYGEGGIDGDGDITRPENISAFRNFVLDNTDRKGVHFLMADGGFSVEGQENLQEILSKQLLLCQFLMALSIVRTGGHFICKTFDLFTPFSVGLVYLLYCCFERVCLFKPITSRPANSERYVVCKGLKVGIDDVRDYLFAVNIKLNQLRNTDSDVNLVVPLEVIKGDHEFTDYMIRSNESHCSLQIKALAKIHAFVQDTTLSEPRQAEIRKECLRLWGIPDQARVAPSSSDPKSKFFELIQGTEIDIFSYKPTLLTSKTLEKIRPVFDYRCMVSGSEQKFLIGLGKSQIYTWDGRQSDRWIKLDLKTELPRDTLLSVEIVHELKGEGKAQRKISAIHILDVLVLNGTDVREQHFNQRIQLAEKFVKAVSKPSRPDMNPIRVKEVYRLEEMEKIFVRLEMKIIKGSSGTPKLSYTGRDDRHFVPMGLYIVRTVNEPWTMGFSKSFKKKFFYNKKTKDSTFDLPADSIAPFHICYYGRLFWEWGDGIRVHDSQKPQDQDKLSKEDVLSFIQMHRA

[3] = in vivo toxicity in mouse, nasal cavity inoculation, change in body weight; conditions: 2 mg/kg intranasally on day 0 and day 1, C57BL/6 mice
Protocol: Next, the in vivo toxicity in the mouse was evaluated by carrying out nasal cavity inoculation once a day for two days.
TFMT or tubercidin at 2 mg/kg was intranasally administered to C57BL/6 mice on the 0th day of infection and the 1st day of infection (indicated by arrows in the figure).

human Mtr1 [4] = target: T1, human Mtr1; experiment: methyltransferase (MTase) activity assay; conditions: 0.8 µM human MTr1, cap0 RNA, SAM[3H], 37°C overnight
Protocol: The synthesized RNA, 3'-O-Me-m7GpppGpG (pN27), was used in a methyltransferase activity assay of human MT r1.
The reaction sample was purified using a mini quick oligo column (Roche, 11814397001), and free SAM [3H] was removed. The purified sample was diluted with ULTIMA GOLD (PerkinElmer, 6013329), and the methyltransferase activity was measured in terms of the number of disintegrations per minute (DPM) by using a scintillation counter LS6500 (Beckman Coulter).

IAV-GFP SC35M strain = assay type: cell-based, influenza A virus
IAV PR8 strain [5] = assay type: cell-based, influenza A virus
IFN-β RNA = experiment: qRT-PCR analysis of IFN-β RNA and other host RNAs in A549 cells; assay type: cell-based, human; conditions: A549 infected or not with IAV PR8 (m.o.i. 1), 10 µM TFMT
Protocol: as §1
1 was analyzed in the presence or absence of 10 µM TFMT.
Each RNA indicated in the figure at the indicated moment at the m.o.i. of 1, in A549 cells which had been infected or not infected with the IAV PR8 strain in the presence or absence of 10 µM TFMT, was analyzed.

HAZV [6] = assay type: cell-based, Hazara virus
IAV WSN = experiment: mouse in vivo IAV infection model, qRT-PCR of IAV RNA in lung tissue; parameters: species or system C57BL/6 mice; conditions: 2 mg/kg intranasally on day 0 and day 1; 2 days after infection, 5 × 10^3 PFU
Protocol: As shown in the figure, the IAV WSN and TFMT were introduced into the nasal cavity. TFMT was added on the 0th day of the IAV WSN infection and the 1st day of the IAV WSN infection.
qRT-PCR analysis (5 × 10^3 PFU) of IAV RNA in the lung tissue of the IAV-infected C57BL/6 mice on the 2nd day was carried out. TFMT of 2 mg/kg was intranasally administered on the 0th day of infection and the 1st day of infection. […] (*p < 0.05, **p < 0.01).

IAV PR8 strain [7] = tested on: IAV PR8 strain
HAZV [8] = assay type: cell-based, Hazara virus; remark: listed apart in the source
STBV = experiment: qRT-PCR analysis of STBV RNA in infected A549 cells; assay type: cell-based, Soft tick bunya virus; conditions: A549, m.o.i. 0.1, 24 hours
Protocol: as §1

[9] = NHBE cells, m.o.i. 1, 24 hours, […]

Compound: Nc1ncnc2c1c(C(F)(F)F)cn2[C@@H]1O[C@H](CO)[C@@H](O)[C@H]1O [TFMT, trifluoromethyl tubercidin]
- virus titer, second figure printed in the same sentence ('and was 100 to 1,000') [1]: 100 to 1,000

Compound: Nc1ncnc2c1ccn2[C@@H]1O[C@H](CO)[C@@H](O)[C@H]1O [tubercidin]
- toxicity (WST-8) (A549 cells; A549 infected with IAV-GFP, 19 hours, tubercidin 0.1 to 100 µM): the toxicity was slight
- effect on IBV infection (IBV; A549, compound added 3 hours before infection (FIG. 19(d))): had an effect on the IBV infectious disease
- binding to recombinant MTr1 (thermal shift) (human Mtr1 [2]): directly binds to the recombinant MTr1
- change in body weight [3]: caused a significant body weight loss
- MTase activity of the recombinant MTr1 protein (human Mtr1 [4]): inhibits the MTase activity of the recombinant MTr1 protein in a dosage-dependent manner
- anti-IAV activity, rank among 12 commercially available compounds (GFP level) (IAV-GFP SC35M strain): identified as the most effective compound
- inhibition of IAV-GFP (GFP level), dose dependence (IAV-GFP SC35M strain): the inhibition depended on the dose at 0.1 to 100 µM

Compound: trifluoromethyl tubercidin [TFMT]
- cell cytotoxicity of combined treatment (WST-8) (A549 cells): without cell cytotoxicity
- in vitro toxicity (WST-8 cell survival rate assay) (A549 cells; A549, within the effective concentration range): no significant in vitro toxicity was confirmed within the effective concentration range
- antiviral activity against IBV (virus RNA, qRT-PCR) (IBV; A549, m.o.i. 1, 24 hours): exhibits an antiviral activity
- change in body weight [3]: does not cause body weight loss or cell cytotoxicity
- antiviral activity against IAV (virus RNA, qRT-PCR) (IAV PR8 strain [5]; A549, m.o.i. 1, 24 hours): exhibits an antiviral activity
- dependence of the effect on IAV replication on innate immune factors (IAV RNA segment 7) (IAV PR8 strain [5]; A549, m.o.i. 1, 24 hours (FIG. 29)): independent of the IFIT1-dependent isolation of RNA or RIG-I/MDA5 signaling
- induction of IFN-β or antiviral ISG (qRT-PCR) (IFN-β RNA): did not induce IFN-β or antiviral ISG
- antiviral activity against HAZV (virus RNA, qRT-PCR) (HAZV [6]): does not exhibit an antiviral activity
- IAV NP level in the mouse lung (IAV RNA segment 5, qRT-PCR) (IAV WSN): significantly reduced
- PB2 mRNA level in the mouse lung (IAV RNA segment 1, qRT-PCR) (IAV WSN): significantly reduced
- cell cytotoxicity in NHBE cells (histological analysis) (IAV PR8 strain [7]): without cell cytotoxicity
- RNA level of IAV (segment 7, qRT-PCR) (IAV PR8 strain [7]; [9]): significantly reduced in a dosage-dependent manner
- protein level of IAV (Western blot) (IAV PR8 strain [7]; [9]): significantly reduced in a dosage-dependent manner
- IAV NP level (immunostaining) (IAV PR8 strain [7]; NHBE cells, m.o.i. 2, 24 hours, 10 µM TFMT): significantly decreased
- HAZV replication (HAZV RNA, qRT-PCR) (HAZV [8]): did not inhibit HAZV replication
- antiviral activity against STBV (virus RNA, qRT-PCR) (STBV): does not exhibit an antiviral activity
- MTase activity of the recombinant MTr1 protein (human Mtr1 [4]): inhibited
- IAV replication (GFP level), time of addition (IAV-GFP SC35M strain): significantly inhibited IAV replication; also recorded: the effect was reduced or could not be confirmed
- inhibition at the lowest concentration, secondary screening step 3 (IAV-GFP SC35M strain): identified as the most effective compound
- synergistic effect with amantadine (GFP relative fluorescence units, combination index) (IAV-GFP SC35M strain; combination of TFMT and amantadine, […]): exhibited a synergistic effect
- synergistic effect with BXM (GFP relative fluorescence units, combination index) (IAV-GFP SC35M strain; combined treatment of TFMT and BXM, […]): a strong synergistic effect was observed
- IC50 (IAV-GFP SC35M strain; read-out: IC50 for IAV infection): 300 nM
